The source of these data is US11596692B1 (Incyte Corporation, priority 2018, dated 2023).

The target in one assay is PD-1/PD-L1 (Homo sapiens (Human), UniProt Q9NZQ7). As to the kind of experiment: PD-1/PD-L1 binding assay (Alphascreen). As for the experimental part: Binding assays were conducted in a low volume white 384-well polystyrene plate in a final volume of 20 μL. Compounds to be analyzed were first serially diluted in DMSO and added to the plate wells before the addition of other reaction components. The final concentration of DMSO in the assay was 1%. The assay was carried out at 25° C. in the PBS buffer (pH 7.4) with 0.05% Tween-20 and 0.1% BSA. Recombinant human PD-L1 protein (19-238) with a His-tag at the C-terminus was purchased from AcroBiosystems (PD1-H5229). Recombinant human PD-1 protein (25-167) with Fc tag at the C-terminus was also from AcroBiosystems (PD1-H5257). PD-L1 and PD-1 proteins were diluted in the assay buffer (final concentration—0.67 and 0.20 nM respectively) and 10 μL was added to the plate well. Plates were centrifuged and proteins were preincubated with compounds for 40 minutes. The incubation was followed by the addition of 10 μL of assay buffer supplemented with Alphascreen Ni chelate donor beads (PerkinElmer—AS101D) and Protein A Acceptor beads (PerkinElmer—6760137) at final concentration 2.5 μg/mL under reduced light. After plate sealing, the plate was incubated in the dark at room temperature for 120 minutes before reading on a PHERAstar FS plate reader (BMG Labtech). IC50 determination was performed by fitting the curve of percent control activity versus the log of the compound concentration using the GraphPad Prism 5.0 software.
Sequence of PD-1/PD-L1 (Q9NZQ7 19-238): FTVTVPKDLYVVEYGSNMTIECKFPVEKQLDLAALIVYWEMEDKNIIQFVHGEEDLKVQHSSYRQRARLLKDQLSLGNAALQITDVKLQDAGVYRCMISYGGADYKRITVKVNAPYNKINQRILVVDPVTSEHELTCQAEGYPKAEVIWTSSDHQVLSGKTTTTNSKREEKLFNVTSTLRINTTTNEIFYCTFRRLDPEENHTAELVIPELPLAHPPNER
In general terms: Bead proximity is the source of the signal in Alpha formats.

Assay [1] has as its target T1, PD-L1 (Homo sapiens (Human), UniProt Q9NZQ7). As to the kind of experiment: Indirect whole blood PD-L1 internalization assay. It counts as cell-based. Particulars: interferon γ, 18 hours, CD14+ gated. As for the experimental part: To determine PD-L1 internalization in human whole blood, normal human blood (Biological Specialty Corp, Colmar. Pa.) was incubated in the presence or absence of a concentration range of test compounds and 1 ng/ml human interferon γ (R&D Systems Inc. Minn. Minn.) in a 96 well round bottom plate (Corning, Corning, N.Y.) for 18 hours at 37° C. Blood was then transferred into 96 well “2 ml Assay Block” (Corning, Corning N.Y.) and stained with PD-L1 (MIH1, eBioscience; or BD Biosciences San Jose, Calif.), CD14 (Life Technologies, Carlsbad, Calif.) for 30 minutes in the dark at room temperature. Whole Blood/red cells were lysed/fixed (lysis buffer BD Biosciences) for 5 minutes at 37° C. in dark and then centrifuged at 1600 RPM for 5 minutes and cells were transferred into 96 well round bottom plates (Corning). Cells were gated on CD14+ (BD Biosciences) and PD-L1 expression determined by mean fluorescence intensity (MFI) (BD LSRFortessa™ X-20). IC50 determination was performed by fitting the curve of compound percent inhibition versus the log of the compound concentration using the GraphPad Prism 7.0 software.

Assay [2] deals with T1, PD-L1. The assay is described as follows: Indirect PD-L1 internalization assay using MDA-MB231 cells. The format is cell-based. The following applies: 16 hrs. As for the experimental part:
For the indirect analysis, cell surface PD-L1 was detected with fluorescently labeled anti-PD-L1 (CD274) antibodies. CHO-PD-L1 cells were seeded at 2×10^5 cells per well of a 6-well tissue culture plate in 2 ml of F-12 medium supplemented with 10% FBS, 200 μg/ml Hydromycin and 250 μg/ml Geneticin and allowed to attach for 24 hours. After 24 hours, test compounds were added to a final concentration of 1 uM from DMSO stocks, and an equal volume of DMSO was added to control wells. Cells were incubated in the presence of a compound for 16 hours at 37° C., 5% CO2. Prior to analysis, the cells were washed twice with 1 mL of Ca, Mg free PBS and detached with 1 mL of lift buffer (10 mM Tris, 140 mM NaCl, 1 mM EDTA). The collected cells were stained with PE-conjugated mouse anti-human CD274 antibody according to manufacturer instructions: BD Pharmigen #557924 Clone MIH1 (20 μL of Ab per 100 uL of BSA based staining buffer) or eBioscience #12-5983 Clone MIH1 (2 μL per 100 ul of BSA based staining buffer). Cells were incubated at room temperature for 20 minutes, protected from light, washed twice with Ca, Mg free PBS and resuspended in 400 μL of PBS. Antibody binding was detected by flow cytometry using an Accuri C6 instrument. Isotype control antibody-stained cells were used as a negative control. To test that lack of PD-L1 cell surface staining was not due to inhibition of detection antibody binding by the test article, an acid-wash procedure was used. After 16 hours of incubation in the presence of a compound or anti-PD-L1 antibody, the remaining, non-internalized a compound or antibody was stripped from the cell surface using freshly prepared, ice-cold acid stripping buffer (DMEM/0.2% BSA, pH 3.5). Cells were washed in this manner three times for 5 minutes each on a shaking platform. The stripped cells were then washed with ice-cold PBS three times for 5 minutes each with gentle shaking, harvested with lift buffer and stained with PE-mouse anti human CD274 antibodies as described.
For the indirect method of assessing PD-L1 internalization using the MDA-MB231 breast cancer cell line, the procedure for the assays was the same as described for the CHO-PD-L1 cells with the following changes. MDA-MB231 were seeded at 2×10^5 cells per well of a 6-well tissue culture plate in 2 ml of RPMI1640 medium supplemented with 10% FBS. After compound treatment for 16 hrs, the cells were treated with the stripping buffer (DMEM/0.2% BSA, pH 3.5) prior to staining with the anti-CD274 antibodies as described.

The subject of the next assay is IRF3. The assay is described as follows: IRF3 activation assay in THP-1 Dual cells. Particulars: Homo sapiens, THP-1, Table 4C; read-out: THP1 IRF3 EC50. The format is cell-based. The essentials: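 THP-1 Dual cells (100,000/well) were treated with serially diluted compound for 24 h at 37° C, 5% CO2. IRF3 reporter activity in supernatant was read with QUANTI-Blue as absorbance at 620-655 nm after 2 h, with untreated cells as negative control. EC50 came from fitting percent control activity against log concentration.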

In assay [3] the test system is IFNβ production in CD11b+ monocytes. As to the kind of experiment: IFN-beta induction in CD11b+ monocytes from healthy donor PBMC. The format is cell-based, human. The following applies: Homo sapiens, CD11b+ monocyte cultures, 20 hours, mean ± SEM. How it is done:
(§1) CD11b^+ cells were isolated from healthy PBMCs as well as Pleural effusion samples using Miltenyi isolation kit according to manufacturer's protocol. Cells were seeded in 96 well plates at the density of 300,000 cells/wells, and then treated with various concentrations of compounds for 20 hours. After 20 hours, IFN-beta secretion levels were evaluated in the culture supernatants by MSD singleplex assay. EC50 values were calculated using Prism software.
(§2) Different naked STING agonisst and PD-L1-targeted small molecule-STING agonist conjugates were added to CD11b^+ monocytes cultures isolated from healthy donor blood or lung cancer patients' pleural effusions. Culture supernatants were collected 20 hours later and IFNβ production were determined using MSD singleplex assay.

Assay [4] has the same test system. The assay is described as follows: IFN-beta induction in CD11b+ monocytes from lung cancer pleural effusions. The format is cell-based, human. Particulars: Homo sapiens; CD11b+ monocyte cultures, lung cancer pleural effusion, 20 hours; read-out: EC50 for IFNβ induction, Cancer patient. As for the experimental part: as §1, §2

Bounds are passed on as bounds.

T1 sequence (Q9NZQ7 19-290): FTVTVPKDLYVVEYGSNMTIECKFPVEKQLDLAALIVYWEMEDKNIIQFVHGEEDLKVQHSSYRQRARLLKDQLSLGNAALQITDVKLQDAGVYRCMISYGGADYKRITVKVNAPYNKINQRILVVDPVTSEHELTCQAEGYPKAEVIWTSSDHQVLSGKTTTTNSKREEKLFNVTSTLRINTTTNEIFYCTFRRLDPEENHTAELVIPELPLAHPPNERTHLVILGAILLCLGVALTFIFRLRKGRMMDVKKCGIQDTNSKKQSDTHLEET

On to `Cc1c(NC(=O)c2nc3c(n2C)CCN(C[C@H](C)O)C3)cccc1-c1cccc(NC(=O)c2nc3c(n2C)CCN(C)C3)c1Cl` [Example P8], for which the IC50 (in general, the concentration needed to halve the response being measured) at PD-1/PD-L1 is 0.1 to 1 nM; against PD-L1 [1], < 100 nM; against PD-L1 [2] it was < 10 nM.

Turning to `Cc1c(NC(=O)c2nc3c(n2C)CCN(C2CCOCC2)C3)cccc1-c1cccc(NC(=O)c2nc3c(n2C)CCN(C)C3)c1Cl` [Example P9], the half-maximal inhibitory concentration (IC50) on PD-1/PD-L1 is 0.1 to 1 nM; on PD-L1 [1], < 100 nM.

For `Cc1c(NC(=O)c2nc3c(n2C)CCN(C[C@@H](C)O)C3)cccc1-c1cccc(NC(=O)c2nc3c(n2C)CCN(C)C3)c1Cl` [Example P10], the IC50 at PD-1/PD-L1 was 0.1 to 1 nM; against PD-L1 [1] it was < 100 nM; on PD-L1 [2] it was < 10 nM.

Regarding `Cc1c(-c2nc3cc(CN4CC[C@@H](C(=O)O)C4)cc(C#N)c3o2)cccc1-c1cccc(-c2nc3c(s2)CNCC3)c1C` [Example P12], the IC50 at PD-1/PD-L1 fell in the range of 0.1 to 1 nM; at PD-L1 [1], 100 to 1000 nM; at PD-L1 [2], 10 to 100 nM.

Consider `Cc1c(Nc2nccc3cc(CN4CC[C@@H](O)C4)cnc23)cccc1-c1cccc(-c2nc3cc(CC4CC[C@@H](C(=O)O)C4)cc(C#N)c3o2)c1C` (stereo partly shown) [Example P14], for which the IC50 is 0.1 to 1 nM on PD-1/PD-L1, < 100 nM against PD-L1 [1] and < 10 nM on PD-L1 [2].

Regarding `Cc1c(Nc2nccc3cc(CN4CC[C@@H](O)C4)cnc23)cccc1-c1cccc(-c2nc3cc(CN4CC[C@@H](C(=O)O)C4)cc(C#N)c3o2)c1C` [Example P15], the half-maximal inhibitory concentration (IC50) on PD-1/PD-L1 lay within 0.1 to 1 nM; against PD-L1 [1] it was 100 to 1000 nM.

In the case of `Cc1c(-c2nc3cc(CN4CC[C@@](C)(C(=O)O)C4)cc(C#N)c3o2)cccc1-c1cccc(Nc2nccc3cc(CN4CC[C@H](O)C4)cnc23)c1Cl` [Example P16], the results for the IC50 at PD-1/PD-L1, on PD-L1 [1] and at PD-L1 [2] were 0.1 to 1 nM, 100 to 1000 nM and 10 to 100 nM, respectively.

Take `Cc1c(Nc2nccc3cc(CN4CC[C@@H](O)C4)cnc23)cccc1-c1cccc(-c2nc3c(Cl)cc(CN4CC[C@@H](C(=O)O)C4)cn3n2)c1C` [Example P17]: the values for the IC50 at PD-1/PD-L1, against PD-L1 [1] and against PD-L1 [2] were 0.1 to 1 nM, 100 to 1000 nM and 100 to 500 nM, respectively.

In the case of `Cc1c(Nc2nccc3cc(CN4CC[C@@H](O)C4)cnc23)cccc1-c1cccc(Nc2nccc3cc(CN4CC[C@@H](C(=O)O)C4)cnc23)c1C` [Example P18], the concentration for half-maximal inhibition (IC50) is 0.1 to 1 nM on PD-1/PD-L1 and 100 to 1000 nM at PD-L1 [1].

Take `Cc1c(-c2nc3cc(CN4CC[C@@H](C(=O)O)C4)cc(C#N)c3o2)cccc1-c1cccc(-n2cc3c(n2)CN(C(C)C)CC3)c1Cl` [Example P19]: the half-maximal inhibitory concentration (IC50) at PD-1/PD-L1 was 0.1 to 1 nM; against PD-L1 [1], 100 to 1000 nM; at PD-L1 [2], > 500 nM.

Consider `Cc1c(Nc2nccc3cc(CN4CC[C@@H](O)C4)cnc23)cccc1-c1cccc(-c2nc3cc(CN4CC(C(=O)O)C4)cc(C#N)c3o2)c1C` [Example P20], for which the IC50 lay in the range of 0.1 to 1 nM at PD-1/PD-L1 and 100 to 1000 nM on PD-L1 [1].

For `Cc1c(Nc2nccc3cc(CN4CC[C@@H](O)C4)cnc23)cccc1-c1cccc(-c2nc3cc(CNCC(C)(C)C(=O)O)cc(C#N)c3o2)c1C` [Example P21], the 50% inhibitory concentration (IC50) fell in the range of 0.1 to 1 nM at PD-1/PD-L1, 100 to 1000 nM against PD-L1 [1] and 10 to 100 nM against PD-L1 [2].

For `Cc1c(-c2nc3cc(CN4CC[C@@H](C(=O)O)C4)cc(C#N)c3o2)cccc1-c1cccc(NC(=O)c2nc3c(n2C)CCN(C)C3)c1Cl` [Example P22], the 50% inhibitory concentration (IC50) was 0.1 to 1 nM at PD-1/PD-L1 and < 100 nM on PD-L1 [1].

Regarding `Cc1c(Nc2nccc3cc(CN4CC[C@H](C(=O)O)C4)cnc23)cccc1-c1nccc(Nc2nccc3cc(CN4CC[C@@H](O)C4)cnc23)c1C` [Example P23], the results for the IC50 on PD-1/PD-L1, against PD-L1 [1] and at PD-L1 [2] were 0.1 to 1 nM, 100 to 1000 nM and 10 to 100 nM, respectively.

As to `Cc1c(Nc2nccc3cc(CN4CC[C@@H](O)C4)cnc23)cccc1-c1cccc(-c2nc3cc(CN4CC(C(=O)O)C4)cc(Cl)c3o2)c1C` [Example P24], the IC50 at PD-1/PD-L1 is 0.1 to 1 nM; at PD-L1 [1], 100 to 1000 nM; at PD-L1 [2] it was 10 to 100 nM.

With `Cc1c(-c2nc3c(Cl)cc(CN4CC[C@@H](O)C4)cn3n2)cccc1-c1cccc(-c2nc3cc(CN4CC[C@@H](C(=O)O)C4)cc(C#N)c3o2)c1C` [Example P25], the IC50 on PD-1/PD-L1 is 0.1 to 1 nM; against PD-L1 [1] it was 1000 to 5000 nM; at PD-L1 [2], 10 to 100 nM.

With `Cc1c(-c2nc3c(C#N)cc(CN4CC[C@@H](O)C4)cn3n2)cccc1-c1cccc(-c2nc3cc(CN4CC[C@@H](C(=O)O)C4)cc(C#N)c3o2)c1C` [Example P26], the values for the 50% inhibitory concentration (IC50) at PD-1/PD-L1, against PD-L1 [1] and against PD-L1 [2] were 0.1 to 1 nM, 100 to 1000 nM and 10 to 100 nM, respectively.

Take `CCn1nc(C)cc1C(=O)Nc1nc2cc(C(N)=O)cc(OCCCNC(=O)OCC(=O)O)c2n1C/C=C/Cn1c2nc(-c3cc(C)nn3CC)ncc2c2cc(C(N)=O)cc(OCCCOC)c21` [Example S45, (E)-2-(((3-((5-carbamoyl-1-(4-(6-carbamoyl-2-(1-ethyl-3-methyl-1H-pyrazol-5-yl)-8-(3-methoxypropoxy)-9H-pyrimido[4,5-b]indol-9-yl)but-2-en-1-yl)-2-(1-ethyl-3-methyl-1H-pyrazole-5-carboxamido)-1H-benzo[d]imidazol-7-yl)oxy)propyl)carbamoyl)oxy)acetic acid]: the results for the EC50 (with IRF3; in assay [3]; in assay [4]) were ≤ 50 nM, 119 ± 22 nM and 56 nM, respectively.
